The values below come from ChEMBL document CHEMBL1157539, “Thousands of chemical starting points for antimalarial lead identification” (Nature, 2010).

This test relates to Plasmodium falciparum. Put plainly: GSK_TCMDC: Inhibition of Plasmodium falciparum 3D7 in whole erythrocytes, using parasite LDH activity as an index of growth. Format: functional, organism-based. The settings on record: Plasmodium falciparum, 3D7.
On to `CCOc1cc(Cc2cnc(N)nc2N)cc(OCC)c1OCC`, for which the XC50 was determined as 0.284 µM.

With `Cc1cc(N/N=C/c2ccccc2[N+](=O)[O-])c2cc(F)ccc2n1`, the XC50 was 0.665 µM.

Take `Cc1ccc2nc(C)cc(N/N=C/c3ccc([N+](=O)[O-])o3)c2c1`: the XC50 was determined as 0.751 µM.

The compound `CCN(CC)CCN(Cc1ccc(-c2ccc(Br)cc2)cc1)C(=O)Cn1c(CCc2cccc(F)c2F)nc(=O)c2ccccc21` returned an XC50 of 0.788 µM.

`Cc1ccccc1CNCC(O)c1cccc(C(F)(F)F)c1` (centres undefined) showed an XC50 of 0.881 µM.

The compound `O=C(/C=C/c1ccc(Cl)c(Cl)c1)NCCCCCN1CCC(c2c[nH]c3ccc(O)cc23)CC1` gave an XC50 of 0.886 µM.

Turning to `Cn1c(NC(=O)c2ccc(CNC(=O)c3ccc(O)c(-c4ccc(Cl)c(Cl)c4)c3)cc2)nc2ccccc21`, the XC50 came to 0.842 µM.

For `CC(=O)N/N=C/[C@H](CCc1ccccc1)NC(=O)[C@H](CC(C)C)NC(=O)c1cccc(OCCN2CCOCC2)c1`, the XC50 was determined as 0.236 µM.

For the compound `COc1ccc2nc(N3CCN(C(=O)OC(C)(C)C)CC3)nc(NCCCc3ccccc3)c2c1`, the XC50 is 0.687 µM.

The compound `Oc1ccc(CCNc2nc(NCc3ccccc3-c3ccc(C(F)(F)F)cc3)nc(N3CCCNCC3)n2)cc1` returned an XC50 of 0.866 µM.

In turn, `CCc1cc(CNC2CCN(CCc3c(F)cnc4ccc(OC)nc34)CC2)cc2c1OCCO2` returned an XC50 of 0.264 µM.

`CCN(CC)CCNc1ccnc2[nH]c3ccc([N+](=O)[O-])cc3c12` registered an XC50 of 0.198 µM.

On to `CC[C@@H]([C@@H](Cc1cc2ccccc2s1)C(=O)N[C@@H](CCCCNC(=O)OCc1ccccc1)C(=O)Nc1ccccn1)N(O)C=O`, for which the XC50 worked out at 0.227 µM.

The compound `CCCCOP(=O)(COc1ccc(CCN(CC(O)COc2cccc3[nH]c4ccccc4c23)CC(O)COc2cccc3[nH]c4ccccc4c23)cc1)C1CCCCC1` (centres undefined) had an XC50 of 0.939 µM.

Regarding `CC1(C)N=C(N)N=C(N)N1OCCc1ccc2ccccc2c1`, the XC50 was 0.0032 µM.

The compound `CC(Cc1ccc(C(C)(C)C)cc1)NCC(O)c1ccccc1` (centres undefined) registered an XC50 of 1.81 µM.

`CN(CCO)Cc1cccc(-c2ccc(NC(=O)c3cccc(C#N)c3)cc2)c1` had an XC50 of 0.796 µM.

In the case of `COc1ccc(CC(C)NCC(O)c2cccc(C(F)(F)F)c2)cc1F` (centres undefined), the XC50 is 0.827 µM.

Compound `CC1CCC(NCc2ccc3c(CNC4CCC(C)CC4)c(O)ccc3c2O)CC1` (centres undefined) came in with an XC50 of 0.116 µM.

The compound `O=C(/C=C/c1ccc(Cl)c(Cl)c1)NC1CCC(CN2CCC(Cc3cc4ccccc4[nH]3)CC2)CC1` (centres undefined) came in with an XC50 of 0.508 µM.

Consider `CCC(=O)Nc1ccc(Nc2nc(C)cc(N3CCCC3)n2)cc1`, for which the XC50 was determined as 1.32 µM.

With `O=C(c1cccc(-c2noc(C(F)(F)F)n2)c1)N1CCN(c2ccncc2)CC1`, the XC50 stood at 0.233 µM.

Consider `Nc1nc(N)c2c3c(ccc2n1)NCCC3`, for which the XC50 amounted to 0.734 µM.

In the case of `NC(=O)c1cccc(C(=O)Nc2cccc(-c3cccc(-c4nc5cc(C(F)(F)F)ccc5[nH]4)c3)c2)c1`, the XC50 was 0.126 µM.

`CN(/N=C/C=C/c1ccc(Cl)cc1)c1nc(NCCc2ccc(O)cc2)nc(N2CCNCC2)n1` came in with an XC50 of 0.873 µM.

In turn, `COc1ccccc1C1CCN(C2CCC(NC(=O)c3cc4cc(C(C)C)ccc4[nH]3)CC2)CC1` (centres undefined) returned an XC50 of 0.85 µM.

Regarding `Cc1ccc2nc3c(cc(C(=O)NCc4ccccc4)c(=N)n3CCCn3ccnc3)c(=O)n2c1`, the XC50 came out at 0.993 µM.

The compound `COc1ccc(-c2nonc2NC(=O)c2ccc(C(C)(C)C)cc2)cc1OC` came in with an XC50 of 0.814 µM.

With `COc1ccc(CNCc2cccc(-c3csc(-c4nc5ccccc5[nH]4)c3)c2)cc1`, the XC50 came out at 0.645 µM.

`Cn1c(=N)n(CC(=O)OCc2ccc(OCc3ccccc3)cc2)c2ccccc21` gave an XC50 of 0.0819 µM.

Consider `NC(=O)COc1c(C2CCN(CCN3CCC(CNC(=O)c4ccc(-c5ccc(C(F)(F)F)cc5)cc4)CC3)CC2)ccc2c1CCCC2`, for which the XC50 worked out at 0.969 µM.

Take `COc1ccc(C(=O)CCC(=O)N(Cc2ccc(-c3ccc(CNCCc4ccc(S(C)(=O)=O)cc4)cn3)cc2)C2CCN(Cc3ccccc3)CC2)cc1F`: the XC50 stood at 0.437 µM.

As for `COc1ccc(NS(=O)(=O)c2ccc(C(=O)Nc3ccc(OC(F)(F)F)cc3)cc2)cc1N1CCN(CC2CC2)CC1`, the XC50 was 1 µM.

`CC(C)(C)c1nn(-c2ccc(Cl)cc2)c2[nH]c(=O)c(CNCc3cccs3)cc12` registered an XC50 of 0.759 µM.

Turning to `CC1(CCCCN2CCC(Oc3ccc(F)cc3F)CC2)C(=O)Nc2ccccc21` (centres undefined), the XC50 worked out at 0.761 µM.

Regarding `C=Cc1ccccc1C1(O)CCN(CCCCNC(=O)c2ccc(-c3ccc(C#N)cc3)cc2)CC1`, the XC50 stood at 0.518 µM.

The compound `O=C(/C=C/c1c(Cl)cccc1Cl)NC1CCC(CN2C3CCC2CC(c2c[nH]c4ccccc24)C3)CC1` (centres undefined) had an XC50 of 0.844 µM.

As for `Cc1ccc(O)c(C(=O)c2cnc3c(c2)c(-c2ccc(F)cc2)c(C#N)c(=O)n3C)c1`, the XC50 was determined as 0.971 µM.

The compound `COc1ccc2nc3cc(Cl)ccc3c(NCCN(C)C)c2c1` returned an XC50 of 0.188 µM.

On to `Cc1ccc(Nc2nccc(NCC(O)c3cccc(C)c3)n2)cc1` (centres undefined), for which the XC50 was 1.02 µM.

In turn, `CC(C)N1CCN(CCCNc2c3ccccc3nc3ccccc23)CC1` gave an XC50 of 0.233 µM.

`CC(=O)Nc1ncc(C(=O)Nc2cccc(-c3ccc(-c4nc5ccccc5[nH]4)cc3)c2)s1` returned an XC50 of 0.669 µM.

Compound `CCN(CC)/C(=N/C(=N)NCc1cccc(Cl)c1)NCCCCCCN/C(=N\C(=N)NCc1cccc(Cl)c1)N(CC)CC` registered an XC50 of 0.206 µM.

Regarding `O=C(Nc1ccc(Cn2ncc(N3CCCNCC3)c(Cl)c2=O)cc1)Nc1cccc(SC(F)(F)F)c1`, the XC50 is 0.675 µM.

`CNC(=O)c1cc(S(=O)(=O)N2CCN(c3ccccn3)CC2)c(C)s1` came in with an XC50 of 1.16 µM.

As for `Cc1cccc2nc(-c3ccc(-c4cccc(NC(=O)Nc5ccc(Cl)c(Cl)c5)c4)s3)[nH]c12`, the XC50 is 0.594 µM.

Regarding `CC(CN1CCN(C)CC1)C(=O)Nc1ccc(-c2cccc(-c3nc4cc(F)ccc4[nH]3)c2)cc1` (centres undefined), the XC50 was 0.522 µM.

`COc1ccc(-c2ccc(CNCc3ccc(F)cc3)cc2)cc1S(=O)(=O)NCCN1CCCC1` came in with an XC50 of 0.731 µM.

For `Nc1cccc(CNCc2cccc(-c3cccc(-c4nc5ccccc5[nH]4)c3)c2)c1`, the XC50 was determined as 0.615 µM.

In turn, `CCNc1cc(C(=O)N[C@@H](Cc2ccccc2)[C@H](O)CNC(C)(C)Cc2ccccc2)cc(N2CCCC2=O)c1` gave an XC50 of 0.262 µM.

For `CC(=O)Nc1ccc(C(=O)Nc2cccc(-c3ccc(-c4nc5ccccc5[nH]4)cc3)c2)cn1`, the XC50 worked out at 0.206 µM.

Take `COc1cc(F)c2ncc(Cl)c(CCN3CCC(NCc4cc5c(cn4)OCCO5)CC3)c2c1`: the XC50 came to 0.481 µM.

`COc1cc2c(cc1OC)C(C(=O)c1ccccc1)=NCC2`: the XC50 was 1.09 µM.

`O=C(Cc1c[nH]cn1)Nc1cccc(-c2cccc(-c3nc4cc(F)ccc4[nH]3)c2)c1` displayed an XC50 of 0.777 µM.

Consider `Cc1cc(-c2ccc3occ(CCN)c3c2)cnc1N`, for which the XC50 is 0.877 µM.

For `CN1CCN(c2ccc(Nc3nc(N)c4ccn(C5CCC5)c4n3)cc2)CC1`, the XC50 came out at 1.22 µM.

`CCCC1CCNC(C(O)c2ccnc3ccc(OC)cc23)C1` (centres undefined) returned an XC50 of 0.426 µM.

As to `CN(C)CCC1CCCc2ccc(NC(=O)Nc3ccc(-c4ccncc4)c4ccccc34)cc21` (centres undefined), the XC50 was 1.07 µM.

In turn, `COc1ccccc1N1CCN(c2cccc3c2nc(-c2cncc(C#N)c2)n3CCNCc2ccccc2)CC1` came in with an XC50 of 0.706 µM.

`C=CCOc1ccc(CNC2CCN(Cc3ccccc3)CC2)cc1Br` displayed an XC50 of 1.42 µM.

For the compound `CCCCCCNC(=O)C1Cc2c([nH]c3ccc(Br)cc23)C2(CCN(Cc3ccccc3)CC2)N1` (centres undefined), the XC50 came out at 0.722 µM.

Consider `Cc1cc(C2CCN(CCCCNC(=O)c3ccc(-c4ccc(C#N)cc4)cc3)CC2)c(C)cc1O`, for which the XC50 came out at 0.854 µM.

On to `CNC(=O)COc1ccc(Nc2nnc(-c3ccc(C)c(S(=O)(=O)NCC4CCCO4)c3)c3ccccc23)cc1` (centres undefined), for which the XC50 amounted to 0.933 µM.

Take `CCOC(=O)c1ccc(NC(=O)N[C@H]2CCN(CCCCCNC(=O)/C=C/c3ccc(Cl)c(Cl)c3)C2)cc1`: the XC50 stood at 0.735 µM.

`COc1ccc2nccc([C@@H](O)CN3CCC(NCCNc4cccc(F)c4)CC3)c2c1` yielded an XC50 of 0.176 µM.

Take `CN1CCN(CCCN(Cc2csc(-c3ccc(CNCc4ccccc4)cc3)n2)S(=O)(=O)c2cccc3cccnc23)CC1`: the XC50 came out at 1.41 µM.

The compound `CC(=O)Oc1c(C2CCN(CCCCNC(=O)c3ccc(NC(=O)c4ccc(Cl)cc4)cc3)CC2)ccc2c1CCCC2` showed an XC50 of 0.764 µM.

`CC(=O)c1cccc(NC(=O)NC2CCN(CCCCCNC(=O)/C=C/c3ccc(Cl)c(Cl)c3)CC2)c1` had an XC50 of 0.835 µM.

`CN1CCN(CCCCNc2c3ccccc3nc3ccccc23)CC1` came in with an XC50 of 0.704 µM.

Turning to `Cc1ccc(O)cc1C[C@@H]1C(=O)CC[C@@]2(C)[C@H]1CC[C@]2(C)O`, the XC50 worked out at 0.957 µM.

On to `CN1CCN(c2ccc(-c3cccc(NC(=O)c4cccc([N+](=O)[O-])c4)c3)nn2)CC1`, for which the XC50 was 0.527 µM.

On to `CC(C)C[C@@H](C(=O)Nc1ccc(Cc2ccc(NC(=O)[C@H](CC(C)C)N(C)C(=O)OC(C)(C)C)cc2)cc1)N(C)C(=O)OC(C)(C)C`, for which the XC50 is 0.821 µM.

Compound `Cc1cccc(Cl)c1S(=O)(=O)Nc1cccc(CCN2CCC(N3CCCCC3)CC2)c1` yielded an XC50 of 1.11 µM.

For the compound `Cc1cc(-c2ccc(S(=O)(=O)Nc3cc4c(cc3OC(C)C)CCN(C)CC4)cc2)ccc1Cl`, the XC50 came out at 0.904 µM.

`Clc1ccc(Sc2cncnc2N2CCOCC2)cc1` returned an XC50 of 0.0403 µM.

Consider `N=C(N)c1ccc(C=CC(=O)NCC(O)CNC(=O)C=Cc2ccc(C(=N)N)cc2)cc1` (centres undefined), for which the XC50 was determined as 0.0314 µM.

As for `COc1ccc(NC(=O)Nc2ccc(C)c(-c3ccc(C(=O)NCCN4CCCC4)cc3)c2)cc1`, the XC50 is 0.902 µM.

For the compound `COc1cc2nc(NCCn3ccnc3C)nc(NCCc3ccccc3)c2cc1OC`, the XC50 came to 0.727 µM.

On to `CNC(=O)c1cnc(Nc2ccc(OCC(O)CN(C)C)cc2)nc1Nc1cccc(Br)c1` (centres undefined), for which the XC50 is 0.121 µM.

`O=C(Nc1cccc(Cl)c1Cl)N1CCc2cc3nccc(N4CCN5CCC[C@H]5C4)c3cc21` came in with an XC50 of 1.04 µM.

In turn, `O=S(=O)(NC1CCN(c2ccnc3cc(Cl)ccc23)C1)c1cccc(F)c1` (centres undefined) registered an XC50 of 0.486 µM.

On to `Cc1cccc(CCNC(=O)c2cc(Br)cc(N3CCN(c4ccncc4)CC3)c2)c1`, for which the XC50 turned out to be 0.874 µM.

`COc1ccccc1-c1sccc1C(=O)NC1(c2cc(Cl)cc(Cl)c2)CCCC1` displayed an XC50 of 0.938 µM.

The compound `CCN(Cc1cccc2ccccc12)c1ccc2nc(N)nc(N)c2c1` displayed an XC50 of 0.0032 µM.
